Results on 15 compounds are retold here after patent US11046697B2, “Compounds and compositions useful for treating disorders related to NTRK” (BLUEPRINT MEDICINES CORPORATION, priority 2015, dated 2021).

One test deals with T1, wild type NTRK1 enzyme (Homo sapiens, UniProt P04629).
T1 construct: purchased BPS Bioscience 40280
T1 sequence (P04629 440-796 limits assumed): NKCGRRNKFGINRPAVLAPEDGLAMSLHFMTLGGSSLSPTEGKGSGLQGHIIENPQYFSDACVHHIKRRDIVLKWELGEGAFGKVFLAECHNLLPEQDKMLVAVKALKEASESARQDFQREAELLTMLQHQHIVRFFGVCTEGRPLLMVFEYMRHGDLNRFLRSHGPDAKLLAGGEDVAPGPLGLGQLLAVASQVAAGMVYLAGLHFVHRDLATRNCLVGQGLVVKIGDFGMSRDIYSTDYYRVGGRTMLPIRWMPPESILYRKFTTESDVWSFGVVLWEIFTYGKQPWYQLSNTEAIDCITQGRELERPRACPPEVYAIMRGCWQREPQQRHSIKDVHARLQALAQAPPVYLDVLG
Briefly: NTRK1 Wild Type Assay at 1 mM ATP. The settings on record: 1 mM ATP; read-out: Enz NTRK1 IC50. It is filed as biochemical. Here is the method: NTRK1 Wild Type Assay at 1 mM ATP
The reaction was stopped by the addition of 70 μL of Stop buffer (100 mM HEPES pH 7.5, 0.015% Brij 35, 35 mM EDTA and 0.2% of Coating Reagent 3 (Caliper Lifesciences)). The plate was then read on a Caliper EZReader 2 (protocol settings: −1.7 psi, upstream voltage −500, downstream voltage −3000, post sample sip 35s).
Turning to `O=C(c1n[nH]c2ncnc(N[C@H]3[C@H](O)[C@H](O)[C@@H]4C[C@@H]43)c12)N1C[C@@H](F)C[C@@H]1c1cccc(F)c1F` [Compound 189], the concentration for half-maximal inhibition (IC50) was < 10 nM.

For `COc1ncc(F)cc1[C@H]1C[C@H](F)CN1C(=O)c1n[nH]c2ncnc(N[C@@H]3CCOC[C@H]3O)c12` [Compound 190], the IC50 was < 10 nM.

`O=C(c1n[nH]c2ncnc(NC3CC[C@@H](O)C[C@H]3O)c12)N1C[C@@H](F)C[C@@H]1c1cc(F)ccc1F` (stereo partly drawn) [Compound 191]: the concentration for half-maximal inhibition (IC50) was < 10 nM.

With `O=C(c1n[nH]c2ncnc(N[C@@H]3C=C[C@@H](O)[C@H]3O)c12)N1C[C@@H](F)C[C@@H]1c1cc(F)cc(Cl)c1` [Compound 192], the half-inhibitory concentration (IC50) is < 10 nM.

Consider `O=C(c1n[nH]c2ncnc(NC3CCCC(O)C3O)c12)N1CC(F)CC1c1cccc(F)c1F` (stereo not drawn) [Compound 193], for which the IC50 was < 10 nM.

In the case of `O=C(c1n[nH]c2ncnc(N[C@@H]3C=C[C@@H](O)[C@H]3O)c12)N1C[C@@H](F)C[C@@H]1c1cc(F)cnc1Cl` [Compound 194], the half-inhibitory concentration (IC50) was in the range of 10 to 100 nM.

As to `O=C(c1n[nH]c2ncnc(N[C@@H]3CC[C@@H](O)[C@H]3O)c12)N1C[C@@H](F)C[C@@H]1c1cc(F)ccc1Cl` [Compound 195], the half-maximal inhibitory concentration (IC50) was < 10 nM.

`O=C(c1n[nH]c2ncnc(N[C@@H]3CCOC[C@H]3O)c12)N1C[C@@H](F)C[C@@H]1c1cc(F)ccc1Cl` [Compound 196]: the half-inhibitory concentration (IC50) was < 10 nM.

As to `O=C(c1n[nH]c2ncnc(N[C@@H]3COC[C@@H](O)[C@H]3O)c12)N1C[C@@H](F)C[C@@H]1c1cc(F)cc(F)c1` [Compound 197], the IC50 was < 10 nM.

With `O=C(c1n[nH]c2ncnc(NC3CCOCC3O)c12)N1CC(F)CC1c1cc(F)cc(Cl)c1` (stereo not drawn) [Compound 198], the IC50 was < 10 nM.

For `O=C(c1n[nH]c2ncnc(N[C@@H]3C=C[C@@H](O)[C@H]3O)c12)N1C[C@@H](F)C[C@@H]1c1cc(F)cc(F)c1F` [Compound 199], the IC50 is 10 to 100 nM.

Turning to `O=C(c1n[nH]c2ncnc(N[C@@H]3CCOC[C@H]3O)c12)N1C[C@@H](F)C[C@@H]1c1cc(Cl)ccc1F` [Compound 200], the IC50 is < 10 nM.

As for `O=C(c1n[nH]c2ncnc(N[C@@H]3CC[C@@H](O)[C@H]3O)c12)N1C[C@@H](F)C[C@@H]1c1cc(Cl)ccc1F` [Compound 201], the concentration for half-maximal inhibition (IC50) is < 10 nM.

On to `O=C(c1n[nH]c2ncnc(N[C@@H]3CCOC[C@H]3O)c12)N1C[C@@H](F)C[C@@H]1c1cc(F)cnc1Cl` [Compound 202], for which the IC50 is < 10 nM.

For `O=C(c1n[nH]c2ncnc(N[C@@H]3C[C@@H](C(F)F)C[C@H]3O)c12)N1C[C@@H](F)C[C@@H]1c1cncc(F)c1` [Compound 203], the IC50 is < 10 nM.

The test system of another test is KM12 Cliff (G595R) cell line. Briefly: NTRK G595R mutant cellular assay (CellTiter-Glo growth inhibition). It is filed as cell-based. The settings on record: 72 hr, CellTiter-Glo. The essentials: (§1)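 KM12 (TPM3-NTRK1 fusion) or KM12 Cliff (G595R) cells at 1000 cells/well in 10% FBS media were dosed with compounds at varying concentrations in duplicate after overnight plating.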
The compound `O=C(c1n[nH]c2ncnc(N[C@H]3[C@H](O)[C@H](O)[C@@H]4C[C@@H]43)c12)N1C[C@@H](F)C[C@@H]1c1cccc(F)c1F` [Compound 189] showed a half-maximal inhibitory concentration (IC50) of 10 to 100 nM.

In the case of `O=C(c1n[nH]c2ncnc(NC3CC[C@@H](O)C[C@H]3O)c12)N1C[C@@H](F)C[C@@H]1c1cc(F)ccc1F` (stereo partly drawn) [Compound 191], the IC50 lay in the range of 10 to 100 nM.

`O=C(c1n[nH]c2ncnc(N[C@@H]3C=C[C@@H](O)[C@H]3O)c12)N1C[C@@H](F)C[C@@H]1c1cc(F)cc(Cl)c1` [Compound 192]: the IC50 was in the range of 10 to 100 nM.

The compound `O=C(c1n[nH]c2ncnc(NC3CCCC(O)C3O)c12)N1CC(F)CC1c1cccc(F)c1F` (stereo not drawn) [Compound 193] yielded a half-inhibitory concentration (IC50) of 10 to 100 nM.

Compound `O=C(c1n[nH]c2ncnc(N[C@@H]3C=C[C@@H](O)[C@H]3O)c12)N1C[C@@H](F)C[C@@H]1c1cc(F)cnc1Cl` [Compound 194] showed a half-maximal inhibitory concentration (IC50) of 10 to 100 nM.

Regarding `O=C(c1n[nH]c2ncnc(NC3CCOCC3O)c12)N1CC(F)CC1c1cc(F)cc(Cl)c1` (stereo not drawn) [Compound 198], the 50% inhibitory concentration (IC50) was < 10 nM.

As to `O=C(c1n[nH]c2ncnc(N[C@@H]3C=C[C@@H](O)[C@H]3O)c12)N1C[C@@H](F)C[C@@H]1c1cc(F)cc(F)c1F` [Compound 199], the half-maximal inhibitory concentration (IC50) is < 10 nM.

On to `O=C(c1n[nH]c2ncnc(N[C@@H]3CC[C@@H](O)[C@H]3O)c12)N1C[C@@H](F)C[C@@H]1c1cc(Cl)ccc1F` [Compound 201], for which the IC50 was < 10 nM.

The test is the same for the next values; noted with them: Homo sapiens, KM12, 72 h, 72 hr, CellTiter-Glo.
Turning to `COc1ncc(F)cc1[C@H]1C[C@H](F)CN1C(=O)c1n[nH]c2ncnc(N[C@@H]3CCOC[C@H]3O)c12` [Compound 190], the IC50 lay within 10 to 100 nM.

`O=C(c1n[nH]c2ncnc(N[C@@H]3CC[C@@H](O)[C@H]3O)c12)N1C[C@@H](F)C[C@@H]1c1cc(F)ccc1Cl` [Compound 195]: the IC50 was < 10 nM.

For the compound `O=C(c1n[nH]c2ncnc(N[C@@H]3CCOC[C@H]3O)c12)N1C[C@@H](F)C[C@@H]1c1cc(F)ccc1Cl` [Compound 196], the IC50 was < 10 nM.

Compound `O=C(c1n[nH]c2ncnc(N[C@@H]3COC[C@@H](O)[C@H]3O)c12)N1C[C@@H](F)C[C@@H]1c1cc(F)cc(F)c1` [Compound 197] gave an IC50 of 10 to 100 nM.

`O=C(c1n[nH]c2ncnc(N[C@@H]3CCOC[C@H]3O)c12)N1C[C@@H](F)C[C@@H]1c1cc(Cl)ccc1F` [Compound 200]: the half-maximal inhibitory concentration (IC50) was in the range of 10 to 100 nM.

`O=C(c1n[nH]c2ncnc(N[C@@H]3CCOC[C@H]3O)c12)N1C[C@@H](F)C[C@@H]1c1cc(F)cnc1Cl` [Compound 202] displayed a half-maximal inhibitory concentration (IC50) of 10 to 100 nM.

For `O=C(c1n[nH]c2ncnc(N[C@@H]3C[C@@H](C(F)F)C[C@H]3O)c12)N1C[C@@H](F)C[C@@H]1c1cncc(F)c1` [Compound 203], the IC50 is < 10 nM.

For a further test, the system named is KM12 wild type colon carcinoma cell line harboring the TPM3-NTRK1 fusion protein. Briefly: NTRK wild type cellular assay (CellTiter-Glo growth inhibition). The format is cell-based. As to conditions: 72 hr, CellTiter-Glo; read-out: KM12 (WT) IC50. In short, it runs like this:
as §1
As for `O=C(c1n[nH]c2ncnc(N[C@H]3[C@H](O)[C@H](O)[C@@H]4C[C@@H]43)c12)N1C[C@@H](F)C[C@@H]1c1cccc(F)c1F` [Compound 189], the IC50 was < 10 nM.

Turning to `O=C(c1n[nH]c2ncnc(NC3CC[C@@H](O)C[C@H]3O)c12)N1C[C@@H](F)C[C@@H]1c1cc(F)ccc1F` (stereo partly drawn) [Compound 191], the IC50 is 10 to 100 nM.

As to `O=C(c1n[nH]c2ncnc(N[C@@H]3C=C[C@@H](O)[C@H]3O)c12)N1C[C@@H](F)C[C@@H]1c1cc(F)cc(Cl)c1` [Compound 192], the IC50 is 10 to 100 nM.

As for `O=C(c1n[nH]c2ncnc(NC3CCCC(O)C3O)c12)N1CC(F)CC1c1cccc(F)c1F` (stereo not drawn) [Compound 193], the IC50 lay within 10 to 100 nM.

For `O=C(c1n[nH]c2ncnc(N[C@@H]3C=C[C@@H](O)[C@H]3O)c12)N1C[C@@H](F)C[C@@H]1c1cc(F)cnc1Cl` [Compound 194], the IC50 was in the range of 10 to 100 nM.

Take `O=C(c1n[nH]c2ncnc(NC3CCOCC3O)c12)N1CC(F)CC1c1cc(F)cc(Cl)c1` (stereo not drawn) [Compound 198]: the half-maximal inhibitory concentration (IC50) is < 10 nM.

Consider `O=C(c1n[nH]c2ncnc(N[C@@H]3C=C[C@@H](O)[C@H]3O)c12)N1C[C@@H](F)C[C@@H]1c1cc(F)cc(F)c1F` [Compound 199], for which the 50% inhibitory concentration (IC50) was < 10 nM.

As to `O=C(c1n[nH]c2ncnc(N[C@@H]3CC[C@@H](O)[C@H]3O)c12)N1C[C@@H](F)C[C@@H]1c1cc(Cl)ccc1F` [Compound 201], the IC50 is < 10 nM.

Staying with this test, now noted: Homo sapiens, KM12, 72 h, 72 hr, CellTiter-Glo; read-out: KM12 (WT) IC50.
Take `COc1ncc(F)cc1[C@H]1C[C@H](F)CN1C(=O)c1n[nH]c2ncnc(N[C@@H]3CCOC[C@H]3O)c12` [Compound 190]: the IC50 was 10 to 100 nM.

With `O=C(c1n[nH]c2ncnc(N[C@@H]3CC[C@@H](O)[C@H]3O)c12)N1C[C@@H](F)C[C@@H]1c1cc(F)ccc1Cl` [Compound 195], the IC50 was < 10 nM.

Turning to `O=C(c1n[nH]c2ncnc(N[C@@H]3CCOC[C@H]3O)c12)N1C[C@@H](F)C[C@@H]1c1cc(F)ccc1Cl` [Compound 196], the half-maximal inhibitory concentration (IC50) is < 10 nM.

With `O=C(c1n[nH]c2ncnc(N[C@@H]3COC[C@@H](O)[C@H]3O)c12)N1C[C@@H](F)C[C@@H]1c1cc(F)cc(F)c1` [Compound 197], the half-inhibitory concentration (IC50) lay in the range of 10 to 100 nM.

On to `O=C(c1n[nH]c2ncnc(N[C@@H]3CCOC[C@H]3O)c12)N1C[C@@H](F)C[C@@H]1c1cc(Cl)ccc1F` [Compound 200], for which the IC50 fell in the range of 10 to 100 nM.

As for `O=C(c1n[nH]c2ncnc(N[C@@H]3CCOC[C@H]3O)c12)N1C[C@@H](F)C[C@@H]1c1cc(F)cnc1Cl` [Compound 202], the concentration for half-maximal inhibition (IC50) lay within 10 to 100 nM.

As to `O=C(c1n[nH]c2ncnc(N[C@@H]3C[C@@H](C(F)F)C[C@H]3O)c12)N1C[C@@H](F)C[C@@H]1c1cncc(F)c1` [Compound 203], the IC50 was < 10 nM.
